Measurements as given in patent US7951577B2, “Liquid crystals with reduced toxicity and applications thereof” (Wisconsin Alumni Research Foundation, priority 2003, dated 2011).
“Also recorded” adds a separate entry of the source. Read-outs that look alike come from different tables or passages of the source.

Tests used:
[1] = tested on: vesicular stomatitis virus (VSV); type: cell-based; conditions: 1.5×10^7 pfu VSV, 1 hour at 37° C., supernatant titrated after 2 days
[2] = tested on: vesicular stomatitis virus (VSV); type: cell-based; conditions: 2×10^7 pfu VSV, room temperature, 30 minutes, 1 hour or 4 hours
HeLa cells [3] = experiment: Effects of liquid crystals on HeLa cells (morphology and viability); conditions: DSCG in water; 30% (w/v) A3 in H2O; 21% (w/v) C14AO in H2O with 3% C10OH
Procedure: (§1) HeLa mammalian cell line (from human cervical cancer cells) were grown in poly-L-lysine (MW 30,000 to 70,000)-treated coverslips in a 12-well plate in MEM medium supplemented with 10% fetal bovine serum. HeLa cells were grown in tissue culture plates until the cells reached a confluency of 90 to 95% within 24 hrs and were maintained at 37° C. with 5% CO2.
(§2) After incubation for less than one day, the DMEM was removed, the cells washed with PBS, 250 μl of the liquid crystal solution was overlaid.
(§3) The overlaid cultures were incubated at 37° C. for 4 hours, at which time the liquid crystals were removed, the cells were washed with PBS, and 1 mL of medium DMEM was added back to the cells. The cells were then incubated in the medium at 37° C. for an additional 4 days and then evaluated for morphology and viability.

Human IgG = experiment: Test of antibody binding in lyotropic liquid crystals (FITC anti-Human IgG to immobilized Human IgG); conditions: 200 nM FITC anti-Human IgG in liquid crystal (10% DSCG), 4 hours, room temperature
[4] = Viscosity of lyotropic liquid crystals; type: physicochemical; conditions: DSCG 9% wt, Triton 60% wt, Brij 50% wt, AMO 20% wt
Procedure: Lyotropic liquid crystals were investigated for their biocompatibility and bio-inertness based on the following three criteria: (1) viscosity; (2) observed birefringence of the liquid crystal; and (3) protein binding activity when proteins are dissolved in the lyotropic liquid crystals. The stability of protein structure in the lyotropic liquid crystals is implicitly tested based on the evaluation of criterion (3). The binding activity of antibodies in the liquid crystal was tested by covalent attachment of an antibody to a solid surface and measurement of the binding of a fluorescently labeled antibody to the immobilized antibody.

[5] = tested on: SV-40 transformed human corneal epithelial cells (HCEC); type: cell-based; conditions: SV-40 HCEC, 4 hours under liquid crystal
[6] = tested on: SV-40 human corneal epithelial cells (HCEC); experiment: TRANSWELL assay, prolonged (24 hour) exposure to liquid crystal, Calcein-AM readout; type: cell-based; conditions: 50 μL liquid crystal in upper chamber, confluent and sub-confluent SV-40 HCEC
Procedure: FIGS. 5A and 5B present the results of additional experiments to evaluate the toxicity of two different liquid crystals, 5CB and TL-205, following prolonged exposure to cells. For these experiments, TRANSWELL assays were carried out in which cell cultures were plated onto membranes in a TRANSWELL plate such that they were fed from below by liquid media while in continual contact with the liquid crystal, which was directly overlaid on the cells themselves. Briefly, SV-40 human corneal epithelial cells (HCEC) were grown in SHEM+10% fetal bovine serum. Cells were removed from T-75 tissue culture plates via trypsinization, and counted using a hemacytometer. Cells were plated onto TRANSWELL membranes (3 μm pore size, Corning, Inc., Corning, N.Y.) that allowed them to remain in contact with the liquid crystal as well as with the growth medium for 24 hours. Cells were plated at a concentration of 20,000 cells/well and allowed to grow. Some cells were tested at a density of confluence, approximately 45,000 cells (FIG. 5A), while another set was tested at a density of sub-confluence, approximately 30,000 cells/well (FIG. 5B). […] Calcein-AM was added to each well, and the cell fluorescence was measured to assess cell number. Fluorescence was read using a SYNERGY HT plate reader (Bio-Tek, Instruments, Inc., Winooksi, Vt.).

pH of DSCG in water = type: physicochemical
HeLa cells [7] = tested on: HeLa cells
Procedure: as §1, §2, §3

With `COCCOCCOCCOCc1c(C)c(COCCOCCOCCOC)c(C)c(COCCOCCOCCOC)c1C` [A3] as the compound, how does the “VSV growth after inoculation of HeLa cells in the presence of liquid crystal” value [1] read?
Its value is “no growth of VSV was observed”.

What about the “VSV infectivity after incubation of virus with liquid crystal” value [2] of the same compound?
The value was “no growth of VSV was observed”.

And the “appearance of HeLa cells during contact with liquid crystal” value (HeLa cells [3])?
The value was “cell membranes started to show a rough appearance (blebbing) and the nuclei condensed”.

For Triton, which “antibody binding activity in the lyotropic liquid crystal (in words)” value (from here on “antibody binding activity”) (Human IgG) is on record?
Its value is “interfered with antibody binding activities”.

And the Viscosity [4]?
The Viscosity was over 100 cp.

What does the source list for `CCCCCCCCCCCCCC[N+](C)(C)[O-]` [AMO, tetradecyldimethylamineoxide]?
antibody binding activity in the lyotropic liquid crystal (in words) (Human IgG): preserve specific antibody binding activity; Viscosity [4]: 50-200 cp

For `CCCCCc1ccc(-c2ccc(C#N)cc2)cc1` [5CB, 4-cyano-4′-pentylbiphenyl], which “toxicity to cells (in words)” value [5] is on record?
The value was “toxic”.

And the “cell viability after prolonged exposure” value [6]?
Its value is “appears to kill cells”.

Which “antibody binding activity” value (Human IgG) does the source give for Laurate here?
The value was “interfered with antibody binding activities”.

And the Viscosity [4]?
Its Viscosity is 1-100 cp.

With `O=C(O)c1cc(=O)c2c(OCC(O)COc3cccc4oc(C(=O)O)cc(=O)c34)cccc2o1` [DSCG, disodium chromoglycate] as the compound, how does the “antibody binding activity” value (Human IgG) read?
Its value is “FITC fluorescence was only found in the arrayed spots”.

And the Viscosity [4]?
Its Viscosity is 0.5-30 cp.

What about the “VSV growth after inoculation of HeLa cells in the presence of liquid crystal” value [1] of the same compound?
The value was “VSV can infect cells in the presence of DSCG”.

What about the “VSV infectivity after incubation of virus with liquid crystal” value [2] of the same compound?
The value was “VSV is stable in the presence of DSCG; also recorded: the concentration of the virus had not changed significantly”.

What about the pH (pH of DSCG in water) of the same compound?
Its pH is under 6.

What about the “HeLa cells after liquid crystal removed and medium added back” value (HeLa cells [7]) of the same compound?
Its value is “proliferated well after the medium was added”.

What about the “appearance of HeLa cells during contact with liquid crystal” value (HeLa cells [7]) of the same compound?
Its value is “cells rounded up and detached from the surface”.
